Test results: US20260184707A1, “PHARMACEUTICAL COMPOUNDS FOR THE TREATMENT OF COMPLEMENT MEDIATED DISORDERS” (ALEXION PHARMACEUTICALS, INC., priority 2022, published 2026)

Target: T1, Human complement C1s enzyme (Homo sapiens, UniProt P09871)
T1 construct: purified from human serum, Complement Technology, Inc; purchased Complement Technology, Inc; host or cells: human serum (plasma-derived native protein)
T1 sequence (P09871 438-688 limits assumed): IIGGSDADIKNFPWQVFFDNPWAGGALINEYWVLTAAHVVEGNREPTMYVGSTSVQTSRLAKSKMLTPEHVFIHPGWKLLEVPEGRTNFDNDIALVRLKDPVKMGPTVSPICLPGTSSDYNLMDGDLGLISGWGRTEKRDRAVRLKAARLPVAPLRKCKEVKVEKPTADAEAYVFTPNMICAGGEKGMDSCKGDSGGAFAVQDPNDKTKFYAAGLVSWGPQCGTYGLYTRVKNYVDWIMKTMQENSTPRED
T1 sequence (P09871 16-437 partner limits assumed): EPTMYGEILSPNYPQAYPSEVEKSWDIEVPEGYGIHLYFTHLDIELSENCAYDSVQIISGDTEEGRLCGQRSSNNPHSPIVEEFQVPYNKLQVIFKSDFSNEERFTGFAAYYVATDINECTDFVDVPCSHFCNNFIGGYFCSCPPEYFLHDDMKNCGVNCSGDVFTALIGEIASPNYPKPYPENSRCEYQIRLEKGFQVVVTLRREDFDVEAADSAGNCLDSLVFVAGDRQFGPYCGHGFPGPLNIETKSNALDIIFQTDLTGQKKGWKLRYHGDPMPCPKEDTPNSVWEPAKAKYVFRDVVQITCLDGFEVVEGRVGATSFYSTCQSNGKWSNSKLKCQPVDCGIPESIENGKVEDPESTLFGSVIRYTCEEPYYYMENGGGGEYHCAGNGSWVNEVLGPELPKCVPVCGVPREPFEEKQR
Assay: Human C1s enzyme assay
Assay type: biochemical
Details: human complement C1s enzyme 1.16 nM, substrate Z-L-Lys-SBzl, A405; read-out: IC50 (Stars)
How it was run: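 Thioesterase activity followed colorimetrically (DTNB, A405, 30-s reads) using 100 μM Z-L-Lys-SBzl substrate. Enzyme, human serum-derived C1s at 1.16 nM final, was incubated with test compound for 5 min, room temperature, pH 7.5 Tris buffer with 1 M NaCl. Rate-versus-concentration data fitted by nonlinear regression for IC50.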

SMILES	IC50
O=C(Cn1c(N2CCOCC2)ncc(NC(=O)c2csc(-c3ccccc3)n2)c1=O)NCc1cc2cnccc2[nH]1 [Compound 411, N-(1-(2-(((1H-pyrrolo[3,2-c]pyridin-2-yl)methyl)amino)-2-oxoethyl)-2-morpholino-6-oxo-1,6-dihydropyrimidin-5-yl)-2-phenylthiazole-4-carbox-amide]	< 100 nM
O=C(Cn1c(N2CCOCC2)ncc(NCCCc2ccccc2)c1=O)NCc1cc2cnccc2[nH]1 [Compound 412, N-((1H-pyrrolo[3,2-c]pyridine-2-yl)methyl)-2-(2-morpholino-6-oxo-5-((3-phenylpropyl)amino)pyrimidin-1(6H)-yl)acetamide]	< 100 nM
O=C(Cn1c(N2CCOCC2)ncc(NC(=O)c2coc(-c3ccccc3)n2)c1=O)NCc1cc2cnccc2[nH]1 [Compound 413, N-(1-(2-(((1H-pyrrolo[3,2-c]pyridin-2-yl)methyl)amino)-2-oxoethyl)-2-morpholino-6-oxo-1,6-dihydropyrimidin-5-yl)-2-phenyloxazole-4-carbox-amide]	< 100 nM
Cc1ncc(NC(=O)c2coc(-c3ccccc3)n2)c(=O)n1CC(=O)NCc1cc2cnccc2[nH]1 [Compound 414, N-(1-(2-(((1H-pyrrolo[3,2-c]pyridine-2-yl)methyl)amino)-2-oxoethyl)-2-methyl-6-oxo-1,6-dihydropyrimidin-5-yl)-2-phenyloxazole-4-carboxamide]	< 100 nM
C[C@@H](Nc1ncc(N2CCCCC2)n(CC(=O)NCc2cc3cnccc3[nH]2)c1=O)c1ccc2oc3ccccc3c2c1 [Compound 415, (R)-N-((1H-pyrrolo[3,2-c]pyridin-2-yl)methyl)-2-(3-((1-(dibenzo[b,d]furan-2-yl)ethyl)-amino)-2-oxo-6-(piperidin-1-yl)pyrazin-1(2H)-yl)acetamide]	< 100 nM
C[C@@H](Nc1cnc(N2CCCCC2)n(CC(=O)NCc2cc3cnccc3[nH]2)c1=O)c1ccc(-c2ccccc2F)cc1 [Compound 416, (R)-N-((1H-pyrrolo[3,2-c]pyridin-2-yl)methyl)-2-(5-((1-(2′-fluoro-[1,1′-biphenyl]-4-yl)ethyl)amino)-6-oxo-2-(piperidin-1-yl)pyrimidin-1(6H)-yl)acetamide]	< 100 nM
C[C@@H](Nc1ncc(N2CCOCC2)n(CC(=O)NCc2cc3cnccc3[nH]2)c1=O)c1ccc(-c2ccccc2F)cc1 [Compound 417, (R)-N-((1H-pyrrolo[3,2-c]pyridin-2-yl)methyl)-2-(3-((1-(2′-fluoro-[1,1′-biphenyl]-4-yl)ethyl)amino)-6-morpholino-2-oxopyrazin-1(2H)-yl)acet-amide]	< 100 nM
C[C@@H](Nc1ncc(-c2ccccc2F)n(CC(=O)NCc2cc3cnccc3[nH]2)c1=O)c1ccc(-c2ccccc2F)cc1 [Compound 418, (R)—N-((1H-Pyrrolo[3,2-c]pyridine-2-yl)methyl)-2-(3-((1-(2′-fluoro-[1,1′-biphenyl]-4-yl)ethyl)amino)-6-(2-fluorophenyl)-2-oxopyrazin-1(2H)-yl)acetamide]	< 100 nM
C[C@@H](Nc1ncc(C2CCCC2)n(CC(=O)NCc2cc3cnccc3[nH]2)c1=O)c1ccc2oc3ccccc3c2c1 [Compound 420, (R)-N-((1H-pyrrolo[3,2-c]pyridin-2-yl)methyl)-2-(6-cyclopentyl-3-((1-(dibenzo [b,d]furan-2-yl)ethyl)amino)-2-oxopyrazin-1(2H)-yl)acet-amide]	< 100 nM
C[C@@H](Nc1cnc(N2CCOCC2)n(CC(=O)NCc2cc3cnccc3[nH]2)c1=O)c1ccc(-c2ccccc2F)cc1 [Compound 421, (R)-N-((1H-pyrrolo[3,2-c]pyridin-2-yl)methyl)-2-(5-((1-(2′-fluoro-[1,1′-biphenyl]-4-yl)-ethyl)amino)-2-morpholino-6-oxopyrimidin-1(6H)-yl)acet-amide]	< 100 nM
C[C@@H](Nc1cnc(N2CCCC2)n(CC(=O)NCc2cc3cnccc3[nH]2)c1=O)c1ccc(-c2ccccc2F)cc1 [Compound 422, (R)-N-((1H-pyrrolo[3,2-c]pyridin-2-yl)methyl)-2-(5-((1-(2′-fluoro-[1,1′-biphenyl]-4-yl)ethyl)amino)-6-oxo-2-(pyr-rolidin-1-yl)pyrimidin-1(6H)-yl)acetamide]	< 100 nM
C[C@@H](Nc1ncc(N2CCCCC2)n(CC(=O)NCc2cc3cnccc3[nH]2)c1=O)c1ccc(-c2ccccc2F)cc1 [Compound 423, (R)-N-((1H-pyrrolo[3,2-c]pyridin-2-yl)methyl)-2-(3-((1-(2′-fluoro-[1,1′-biphenyl]-4-yl)ethyl)amino)-2-oxo-6-(piperidin-1-yl)pyrazin-1(2H)-yl)acetamide]	< 100 nM
C[C@@H](Nc1ncc(N2CCCC(O)C2)n(CC(=O)NCc2cc3cnccc3[nH]2)c1=O)c1ccc2oc3ccccc3c2c1 (stereo partly drawn) [Compound 424, N-((1H-pyrrolo[3,2-c]pyridin-2-yl)methyl)-2-(3-(((R)-1-(dibenzo[b,d]furan-2-yl)ethyl)-amino)-6-(3-hydroxypiperidin-1-yl)-2-oxopyrazin-1(2H)-yl)-acetamide]	< 100 nM
C[C@@H](Nc1cnc(-c2ccccc2)n(CC(=O)NCc2cc(Cl)ccc2-n2cnnn2)c1=O)c1ccc2oc3ccccc3c2c1 [Compound 425, (R)-N-(5-chloro-2-(1H-tetra-zol-1-yl)benzyl)-2-(5-((1-(dibenzo[b,d]furan-2-yl)ethyl)-amino)-6-oxo-2-phenylpyrimi-din-1(6H)-yl)acetamide]	> 1000 nM
C[C@@H](Nc1ncc(C2=CCOCC2)n(CC(=O)NCc2cc3cnccc3[nH]2)c1=O)c1ccc2oc3ccccc3c2c1 [Compound 426, (R)—N-((1H-Pyrrolo[3,2-c]pyridine-2-yl)methyl)-2-(3-((1-(dibenzo[b,d]furan-2-yl)ethyl)amino)-6-(3,6-dihydro-2H-pyran-4-yl)-2-oxopyrazin-1(2H)-yl)acetamide]	< 100 nM
C[C@@H](Nc1ncc(C2=CCCCC2)n(CC(=O)NCc2cc3cnccc3[nH]2)c1=O)c1ccc2oc3ccccc3c2c1 [Compound 427, (R)-N-((1H-pyrrolo[3,2-c]pyridin-2-yl)methyl)-2-(6-(cyclohex-1-en-1-yl)-3-((1-(dibenzo[b,d]furan-2-yl)ethyl)-amino)-2-oxopyrazin-1(2H)-yl)acetamide]	< 100 nM
C[C@@H](Nc1ncc(N2CCN(C)CC2)n(CC(=O)NCc2cc3cnccc3[nH]2)c1=O)c1ccc2oc3ccccc3c2c1 [Compound 428, (R)-N-((1H-pyrrolo[3,2-c]pyridin-2-yl)methyl)-2-(3-((1-(dibenzo[b,d]furan-2-yl)ethyl)-amino)-6-(4-methylpiperazin-1-yl)-2-oxopyrazin-1(2H)-yl)-acetamide]	< 100 nM
C[C@@H](Nc1ncc(-c2cscn2)n(CC(=O)NCc2cc3cnccc3[nH]2)c1=O)c1ccc2oc3ccccc3c2c1 [Compound 429, (R)-N-((1H-pyrrolo[3,2-c]pyridin-2-yl)methyl)-2-(3-((1-(dibenzo[b,d]furan-2-yl)ethyl)-amino)-2-oxo-6-(thiazol-4-yl)-pyrazin-1(2H)-yl)acetamide]	< 100 nM
C[C@@H](Nc1ncc(-c2ccccn2)n(CC(=O)NCc2cc3cnccc3[nH]2)c1=O)c1ccc2oc3ccccc3c2c1 [Compound 430, (R)-N-((1H-pyrrolo[3,2-c]pyridin-2-yl)methyl)-2-(3-((1-(dibenzo[b,d]furan-2-yl)ethyl)-amino)-2-oxo-6-(pyridin-2-yl)-pyrazin-1(2H)-yl)acetamide]	< 100 nM
C[C@@H](Nc1ncc(-c2nccs2)n(CC(=O)NCc2cc3cnccc3[nH]2)c1=O)c1ccc2oc3ccccc3c2c1 [Compound 431, (R)-N-((1H-pyrrolo[3,2-c]pyridin-2-yl)methyl)-2-(3-((1-(dibenzo[b,d]furan-2-yl)ethyl)-amino)-2-oxo-6-(thiazol-2-yl)-pyrazin-1(2H)-yl)acetamide]	< 100 nM
C[C@@H](Nc1ncc(-c2cscn2)n(CC(=O)NCc2cc3cnccc3[nH]2)c1=O)c1ccc(-c2ccccc2F)cc1 [Compound 432, (R)-N-((1H-pyrrolo[3,2-c]pyridin-2-yl)methyl)-2-(3-((1-(2′-fluoro-[1,1′-biphenyl]-4-yl)ethyl)amino)-2-oxo-6-(thiazol-4-yl)pyrazin-1(2H)-yl)acetamide]	< 100 nM
O=C(Cn1c(-c2ccccc2F)ncc(N[C@H](CO)c2ccc3oc4ccccc4c3c2)c1=O)NCc1cc2cnccc2[nH]1 [Compound 433, (S)—N-((1H-Pyrrolo[3,2-c]pyridine-2-yl)methyl)-2-(5-((1-(dibenzo[b,d]furan-2-yl)-2-hydroxyethyl)amino)-2-(2-fluorophenyl)-6-oxopyrimidin-1(6H)-yl)acetamide]	< 100 nM
Cc1cccc(-c2ncc(N[C@H](C)c3ccc4oc5ccccc5c4c3)c(=O)n2CC(=O)NCc2cc3cnccc3[nH]2)c1F [Compound 434, (R)-N-((1H-pyrrolo[3,2-c]pyridin-2-yl)methyl)-2-(5-((1-(dibenzo[b,d]furan-2-yl)ethyl)amino)-2-(2-fluoro-3-methylphenyl)-6-oxopyr-imidin-1(6H)-yl)acetamide]	< 100 nM
